Consider 25 compounds from the supplement of paper PMC10790783.

The experiment concerns MRC5-hT fibroblasts expressing HCMV UL38 (glucose-free medium). The experiment in a line: rescue of cell number (AUC of dose-response) relative to untreated glucose-free control; higher = stronger protection from glucose-starvation-induced cell death. The note with it: glucose: 0 (glucose-free DMEM); 96 h; dose range 0.001-20, 10-point curve µM. The protocol:
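MRC5-hT fibroblasts stably expressing HCMV UL38 were seeded in 384-well plates, serum-starved for 24 h, switched to glucose-free DMEM, and pin-transferred with a metabolism-focused compound library as 10-point dose curves (1 nM to 20 µM; n=2). Nuclei were counted by Hoechst imaging 96 h after glucose withdrawal.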

For `COc1cc(O)c2c(c1)C(=O)c1cc(C)cc(O)c1C2=O` [Physcion], the “rescue of cell number” value is -37.6%.
Under `CC(C)=CCC1=C(O)C(=O)c2ccccc2C1=O` [Lapachol] stands 57.7%; under `Cc1ccc(C(=O)c2cc(O)c(O)c([N+](=O)[O-])c2)cc1` [Tolcapone], 37.3%.
Under `Cc1c(-c2ccc(-c3ccccc3F)cc2)nc2ccc(F)cc2c1C(=O)O` [Brequinar] stands 126%; under `O=c1cnn([C@@H]2O[C@H](CO)[C@@H](O)[C@H]2O)c(=O)[nH]1` [6_Azauridine], -34.1%.
Under `O=C(Cc1ccccc1)Nc1nnc(CCSCCc2nnc(NC(=O)Cc3ccccc3)s2)s1` [BPTES] stands -24.3%.
As for `CCOC(=O)c1ccc(-c2ccc(OC(=O)N(C)Cc3cccc(-c4ccncc4)c3)cc2)cc1` [WWL_113], the “rescue of cell number” value was -23.8%.
The same measure for `NC(=O)c1ccc(N)nc1` [6_Aminonicotinamide]: 32.1%.
Under `C[C@H]1O[C@@H](O[C@H]2[C@@H](O)C[C@H](O[C@H]3[C@@H](O)C[C@H](O[C@H]4CC[C@@]5(C)[C@H](CC[C@@H]6[C@@H]5CC[C@]5(C)[C@@H](C7=CC(=O)OC7)CC[C@]65O)C4)O[C@@H]3C)O[C@@H]2C)C[C@H](O)[C@@H]1O` [Digitoxin] stands 23.7%.
Under `CNCCC(Oc1ccc(C(F)(F)F)cc1)c1ccccc1` (stereo not given) [Fluoxetine] stands 47%.
Regarding `CN(C)CC[C@H](CSc1ccccc1)Nc1ccc(S(=O)(=O)NC(=O)c2ccc(N3CCN(Cc4ccccc4-c4ccc(Cl)cc4)CC3)cc2)cc1[N+](=O)[O-]` [ABT_737], the “rescue of cell number” value is -33.6%.
The same measure for `N[C@H](C(=O)O)[C@@H]1CC(Cl)=NO1` [Acivicin]: -32.4%.
Under `CC(=O)N[C@H]1[C@@H](O[C@@H]2O[C@H](CC(O)[C@H]3O[C@@H](n4ccc(=O)[nH]c4=O)[C@H](O)[C@@H]3O)[C@H](O)[C@H](O)[C@H]2NC(=O)/C=C/CC(C)C)O[C@H](CO)[C@@H](N)[C@@H]1O` (stereo not given in full) [Tunicamycin] stands 3.6%; under `Cc1c2oc3c(C)ccc(C(=O)N[C@@H]4C(=O)N[C@H](C(C)C)C(=O)N5CCC[C@H]5C(=O)N(C)CC(=O)N(C)[C@@H](C(C)C)C(=O)O[C@@H]4C)c3nc-2c(C(=O)N[C@@H]2C(=O)N[C@H](C(C)C)C(=O)N3CCC[C@H]3C(=O)N(C)CC(=O)N(C)[C@@H](C(C)C)C(=O)O[C@@H]2C)c(N)c1=O` [Actinomycin_D], 27.1%.
The same measure for `OC[C@H]1NC[C@H](O)[C@@H](O)[C@@H]1O` [1_Deoxynojirimycin]: 5.66%; for `CC1=CC(=O)c2ccccc2C1=O` [Menadione]: 23.5%; for `N#Cc1ccnc(N2C(=O)CC[C@H]2C(=O)N(c2cncc(F)c2)[C@H](C(=O)NC2CC(F)(F)C2)c2ccccc2Cl)c1` [AG-120]: -8.45%.
As for `[N-]=[N+]=CC(=O)OC[C@H](N)C(=O)O` [Azaserine], the “rescue of cell number” value is -20.4%.
For `Cc1cc(C)nc(NC(=S)N2CCN(Cc3ccc(C(F)(F)F)cc3)CC2)c1` [NCT-503], the “rescue of cell number” value is -9.82%.
With `COc1ccccc1OCC(O)CN1CCN(CC(=O)Nc2c(C)cccc2C)CC1` (stereo not given) [Ranolazine], the “rescue of cell number” value was -35.4%.
Regarding `CC(=O)Oc1ccccc1C(=O)O` [Aspirin], the “rescue of cell number” value was found to be 25.2%.
Under `CC[C@@H]1/C=C/C=C/C[C@H](C)[C@H](O)[C@](C)(O)C(=O)[C@H](C)[C@@H](O)[C@H](C)C(=O)[C@H](C)[C@@H](O)[C@H](C)/C=C/C(=O)O[C@H]2[C@@H](C)[C@@H](CC1)O[C@@]1(CC[C@@H](C)[C@@H](C[C@H](C)O)O1)[C@@H]2C` [Oligomycin_A] stands 40.6%.
The same measure for `Fc1ccc(CNc2ncnc3ccc(F)cc23)cc1` [Spautin_1]: 2.13%; for `Cc1ccccc1CN1C(=O)C2=C(CCN(Cc3ccccc3)C2)N2CCN=C12` [ONC-201]: 24%.
Under `NCCCNCCSP(=O)(O)O` [Amifostine] stands 110%.
